Data taken from ChEMBL document CHEMBL1201862, “PubChem BioAssay data set” (2004).
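Briefly, cells in 96-well plates were exposed to five compound concentrations for 48 h, and endpoints were estimated by linear interpolation. GI50 marks 50% less growth.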 Calls of active or inactive are those of the source. Rule as the data show it: active = GI50 up to about 1.1 µM and inactive = higher.

Legend:
Test in all cases: NCI anticancer screen, dose series, 48 h
[1] = system: OVCAR-3
[2] = system: K562
[3] = system: SR
[4] = system: HOP-62
[5] = system: HCT-116
[6] = system: SW-620
[7] = system: OVCAR-8
[8] = system: NCI/ADR-RES
[9] = system: SK-MEL-28
[10] = system: IGROV-1
[11] = system: SF-295
[12] = system: T47D
[13] = system: TK-10
[14] = system: SNB-75
[15] = system: MCF7
[16] = system: NCI-H460
[17] = system: HL-60
[18] = system: OVCAR-4
[19] = system: SK-MEL-5
[20] = system: MDA-MB-231

Compound	GI50 [1]	GI50 [2]	GI50 [3]	GI50 [4]	GI50 [5]	GI50 [6]	GI50 [7]	GI50 [8]	GI50 [9]	GI50 [10]	GI50 [11]	GI50 [12]	GI50 [13]	GI50 [14]	GI50 [15]	GI50 [16]	GI50 [17]	GI50 [18]	GI50 [19]	GI50 [20]
COC(=O)C1OC(O[C@H]2CC[C@]3(C)[C@H]4CC=C5[C@@H]6CC(C)(C)CC[C@]6(C(=O)OC6OCC(O)C(O)C6OC6OC(C)C(OC7OCC(O)C(O)C7O)C(OC7OCC(O)(CO)C7O)C6O)[C@H](O)C[C@@]5(C)[C@]4(C)CC[C@H]3C2(C)C)C(O)C(O)C1O (stereo not given in full)	8.63 µM (inactive)	5.08 µM (inactive)	2.08 µM (inactive)	3.13 µM (inactive)	3.61 µM (inactive)	6.28 µM (inactive)	10.5 µM (inactive)	4.91 µM (inactive)	2.2 µM (inactive)	12.1 µM (inactive)	4.43 µM (inactive)	3.86 µM (inactive)	15.9 µM (inactive)	6.27 µM (inactive)	1.38 µM (inactive)	16.3 µM (inactive)	2.35 µM (inactive)	4.98 µM (inactive)	4.65 µM (inactive)	2.32 µM (inactive)
O=C(O)c1ccc(OCc2ccccc2)c(Cl)c1	> 100 µM (inactive)	> 100 µM (inactive)	> 100 µM (inactive)	> 100 µM (inactive)	> 100 µM (inactive)	> 100 µM (inactive)	> 100 µM (inactive)	> 100 µM (inactive)	> 100 µM (inactive)	> 100 µM (inactive)	> 100 µM (inactive)	> 100 µM (inactive)	> 100 µM (inactive)	> 100 µM (inactive)	> 100 µM (inactive)	> 100 µM (inactive)	> 100 µM (inactive)	14 µM (inactive)	> 100 µM (inactive)	> 100 µM (inactive)
CCCCCCCCCCCCCC[S+](C)C	1.48 µM (inactive)	1.4 µM (inactive)	0.538 µM (active)	1.67 µM (inactive)	2.51 µM (inactive)	2.33 µM (inactive)	1.77 µM (inactive)	> 10 µM (inactive)	2.58 µM (inactive)	1.12 µM (inactive)	3.33 µM (inactive)	2.1 µM (inactive)	1.71 µM (inactive)	1.58 µM (inactive)	1.67 µM (inactive)	2.11 µM (inactive)	1.03 µM (active)	2.4 µM (inactive)	1.53 µM (inactive)	2.23 µM (inactive)
CCN(CC)C1=Nc2ccccc2-n2ccnc2C1	> 100 µM (inactive)	> 100 µM (inactive)	> 100 µM (inactive)	> 100 µM (inactive)	> 100 µM (inactive)	> 100 µM (inactive)	> 100 µM (inactive)	> 100 µM (inactive)	> 100 µM (inactive)	> 100 µM (inactive)	> 100 µM (inactive)	> 100 µM (inactive)	> 100 µM (inactive)	70.5 µM (inactive)	> 100 µM (inactive)	95.1 µM (inactive)	78.2 µM (inactive)	> 100 µM (inactive)	> 100 µM (inactive)	> 100 µM (inactive)
COC1=CC(=O)c2c(c(-c3csc(C)n3)cn2C)C1=O	9.14 µM (inactive)	25.4 µM (inactive)	23.3 µM (inactive)	30 µM (inactive)	23.4 µM (inactive)	35.9 µM (inactive)	22.6 µM (inactive)	22 µM (inactive)	44.5 µM (inactive)	20.7 µM (inactive)	6.75 µM (inactive)	26.5 µM (inactive)	29.9 µM (inactive)	4.31 µM (inactive)	21.7 µM (inactive)	3.43 µM (inactive)	2.13 µM (inactive)	58.2 µM (inactive)	1.72 µM (inactive)	29.4 µM (inactive)
C#CCn1c(=O)c(C)cn(/C(=C\C(=O)OCC)C(=O)OCC)c1=O	6.17 µM (inactive)	2.63 µM (inactive)	2.96 µM (inactive)	20.5 µM (inactive)	3.34 µM (inactive)	1.67 µM (inactive)	3.05 µM (inactive)	3.86 µM (inactive)	2.03 µM (inactive)	8.63 µM (inactive)	19.5 µM (inactive)	2.65 µM (inactive)	1.77 µM (inactive)	17.6 µM (inactive)	2.72 µM (inactive)	2.2 µM (inactive)	1.35 µM (inactive)	2.69 µM (inactive)	22.3 µM (inactive)	10.1 µM (inactive)
CCCCCN(CCCCC)CC(C)(C)C(O)c1ccc(OC)c2ccccc12 (stereo not given)	8.34 µM (inactive)	3.01 µM (inactive)	2.07 µM (inactive)	22.9 µM (inactive)	12.9 µM (inactive)	10 µM (inactive)	10.5 µM (inactive)	7.05 µM (inactive)	10.5 µM (inactive)	2.59 µM (inactive)	9.77 µM (inactive)	4.56 µM (inactive)	7.98 µM (inactive)	20.5 µM (inactive)	5.13 µM (inactive)	3.4 µM (inactive)	3.77 µM (inactive)	11.1 µM (inactive)	3.52 µM (inactive)	13.8 µM (inactive)
CCCCc1c(O)nc(Nc2nc3ccccc3[nH]2)[nH]c1=O	> 100 µM (inactive)	> 100 µM (inactive)	> 100 µM (inactive)	> 100 µM (inactive)	> 100 µM (inactive)	> 100 µM (inactive)	> 100 µM (inactive)	> 100 µM (inactive)	> 100 µM (inactive)	> 100 µM (inactive)	> 100 µM (inactive)	> 100 µM (inactive)	> 100 µM (inactive)	> 100 µM (inactive)	> 100 µM (inactive)	> 100 µM (inactive)	> 100 µM (inactive)	> 100 µM (inactive)	> 100 µM (inactive)	> 100 µM (inactive)
CO/N=C1\CC(C)N2C(=O)C(C(C)C)NC(=O)C(NC(=O)c3c4nc5c(C(=O)NC6C(=O)NC(C(C)C)C(=O)N7C(C)CC(O)C7C(=O)N(C)CC(=O)N(C)C(C(C)C)C(=O)OC6C)ccc(C)c5oc-4c(C)c(=O)c3N)C(CO)OC(=O)C(C)N(C)C(=O)CN(C)C(=O)C12 (stereo not given)	1.42 µM (inactive)	0.159 µM (active)	0.0184 µM (active)	1.57 µM (inactive)	0.321 µM (active)	0.346 µM (active)	0.617 µM (active)	16.6 µM (inactive)	0.791 µM (active)	0.191 µM (active)	1.13 µM (inactive)	0.574 µM (active)	5.48 µM (inactive)	0.883 µM (active)	0.34 µM (active)	0.098 µM (active)	0.555 µM (active)	5.82 µM (inactive)	0.174 µM (active)	0.656 µM (active)
Oc1ccc(Cn2c(-c3ccc(O)c(O)c3)nc3ccccc32)cc1O	14.4 µM (inactive)	10.8 µM (inactive)	3.72 µM (inactive)	14 µM (inactive)	4.72 µM (inactive)	13.4 µM (inactive)	7.76 µM (inactive)	32.9 µM (inactive)	22.1 µM (inactive)	11.9 µM (inactive)	23.6 µM (inactive)	10.6 µM (inactive)	9.64 µM (inactive)	12.1 µM (inactive)	30.1 µM (inactive)	15.8 µM (inactive)	16.8 µM (inactive)	4.9 µM (inactive)	14.7 µM (inactive)	12.3 µM (inactive)
COc1ccc(-c2cs/c(=N\c3ccccc3)n2CC(O)c2ccc([N+](=O)[O-])cc2)cc1 (stereo not given)	> 100 µM (inactive)	3.84 µM (inactive)	4.25 µM (inactive)	> 100 µM (inactive)	> 29.9 µM (inactive)	> 100 µM (inactive)	> 100 µM (inactive)	> 74.5 µM (inactive)	> 100 µM (inactive)	> 100 µM (inactive)	> 100 µM (inactive)	5.42 µM (inactive)	> 100 µM (inactive)	> 100 µM (inactive)	> 63.8 µM (inactive)	> 100 µM (inactive)	> 100 µM (inactive)	> 100 µM (inactive)	4.04 µM (inactive)	> 100 µM (inactive)
CCOC(=O)C(=CNc1ccc(S(N)(=O)=O)cc1)C(=O)OCC	> 100 µM (inactive)	> 100 µM (inactive)	> 100 µM (inactive)	> 100 µM (inactive)	> 100 µM (inactive)	> 100 µM (inactive)	> 100 µM (inactive)	> 100 µM (inactive)	> 100 µM (inactive)	> 100 µM (inactive)	> 100 µM (inactive)	> 100 µM (inactive)	> 100 µM (inactive)	> 100 µM (inactive)	> 100 µM (inactive)	> 100 µM (inactive)	> 100 µM (inactive)	> 100 µM (inactive)	> 100 µM (inactive)	> 100 µM (inactive)
C[C@@H]1O[C@@H](O[C@H]2CC[C@]3(C=O)[C@H]4CC[C@]5(C)[C@@H](c6ccc(=O)oc6)CC[C@]5(O)[C@@H]4CC[C@]3(O)C2)[C@H](O)[C@H](O)[C@H]1O[C@@H]1O[C@H](CO)[C@@H](O)[C@H](O)[C@H]1O [HELLEBRIN]	0.00408 µM (active)	0.0218 µM (active)	0.00601 µM (active)	0.0375 µM (active)	0.00805 µM (active)	0.0375 µM (active)	0.0126 µM (active)	0.0152 µM (active)	0.0375 µM (active)	0.0183 µM (active)	0.0112 µM (active)	0.0166 µM (active)	0.00347 µM (active)	0.0198 µM (active)	0.0375 µM (active)	0.00771 µM (active)	0.00615 µM (active)	0.00743 µM (active)	0.00841 µM (active)	0.0379 µM (active)
